Experimental data reported in ChEMBL document CHEMBL1201862, “PubChem BioAssay data set” (2004).
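Compound exposure: 48 hours, 5 concentrations, 96-well plates. GI50 is the concentration that inhibits growth by half.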 The source made the active and inactive calls. Rule as the data show it: active = GI50 up to about 1.1 µM and inactive = higher.

Columns and labels:
Test in all cases: DTP human tumour cell line panel, 48 h
HCT-116 = system: HCT-116
KM12 = system: KM12
SK-MEL-28 = system: SK-MEL-28
SK-MEL-2 = system: SK-MEL-2
SNB-19 = system: SNB-19
UACC-257 = system: UACC-257
NCI-H226 = system: NCI-H226
HT-29 = system: HT-29
UACC-62 = system: UACC-62
Malme-3M = system: Malme-3M
HL-60 = system: HL-60
SF-295 = system: SF-295
IGROV-1 = system: IGROV-1
NCI-H23 = system: NCI-H23
OVCAR-8 = system: OVCAR-8
OVCAR-5 = system: OVCAR-5
SF-268 = system: SF-268
SK-MEL-5 = system: SK-MEL-5
HOP-92 = system: HOP-92

Measured: GI50

CC(=O)NC1CC2Oc3ccc(C)cc3C(C)(O2)C1O (stereo unspecified)
inactive: HCT-116 > 100 µM | KM12 > 100 µM | SK-MEL-28 > 100 µM | SK-MEL-2 > 100 µM | SNB-19 > 100 µM | UACC-257 > 100 µM | NCI-H226 > 100 µM | HT-29 > 100 µM | UACC-62 > 100 µM | Malme-3M > 100 µM | HL-60 > 100 µM | SF-295 > 100 µM | IGROV-1 > 100 µM | NCI-H23 > 100 µM | OVCAR-8 > 100 µM

O=C(Nc1ccc(F)cc1)c1cc2c(cc1Cl)Sc1nccn1S2(=O)=O
inactive: OVCAR-5 > 100 µM | HCT-116 35.6 µM | KM12 > 100 µM | SK-MEL-28 88.5 µM | SF-268 37.3 µM | SK-MEL-2 > 100 µM | SNB-19 40.1 µM | NCI-H226 > 100 µM | HT-29 > 100 µM | Malme-3M > 100 µM | SF-295 28.9 µM | IGROV-1 > 100 µM | OVCAR-8 85.9 µM | SK-MEL-5 14.9 µM

O=C(NCCCOC(=O)CCCCCCCCC(=O)OCCCNC(=O)NC(=O)c1c[nH]c(=O)[nH]c1=O)NC(=O)c1c[nH]c(=O)[nH]c1=O
inactive: OVCAR-5 > 100 µM | HCT-116 > 100 µM | KM12 > 100 µM | SK-MEL-28 > 100 µM | SF-268 > 100 µM | SK-MEL-2 > 100 µM | SNB-19 > 100 µM | UACC-257 > 100 µM | UACC-62 > 100 µM | Malme-3M > 100 µM | HL-60 > 100 µM | SF-295 > 100 µM | IGROV-1 > 100 µM | NCI-H23 45.1 µM | OVCAR-8 > 100 µM | HOP-92 > 100 µM | SK-MEL-5 > 100 µM

CCOC(=O)c1csc(NC(=O)C(C)N2CCCC2)n1 (stereo unspecified)
inactive: OVCAR-5 > 100 µM | KM12 > 100 µM | SK-MEL-28 > 100 µM | SK-MEL-2 > 100 µM | SNB-19 > 100 µM | UACC-257 > 100 µM | HT-29 > 100 µM | UACC-62 > 100 µM | SF-295 > 100 µM | IGROV-1 > 100 µM | NCI-H23 > 100 µM | OVCAR-8 > 100 µM | HOP-92 > 100 µM | SK-MEL-5 > 100 µM

CCOC(=O)C1Nc2ccc([N+](=O)[O-])cc2[C@H]2OCC[C@@H]12 (stereo partly specified)
inactive: OVCAR-5 > 100 µM | HCT-116 > 100 µM | KM12 > 100 µM | SK-MEL-28 > 100 µM | SF-268 > 100 µM | SK-MEL-2 > 100 µM | SNB-19 > 100 µM | UACC-257 > 100 µM | NCI-H226 > 100 µM | HT-29 > 100 µM | UACC-62 > 100 µM | Malme-3M > 100 µM | HL-60 > 100 µM | SF-295 > 100 µM | IGROV-1 > 100 µM | NCI-H23 > 100 µM | OVCAR-8 > 100 µM | SK-MEL-5 > 100 µM

Cc1nc(C)c(C(=O)NNC(=O)C[N+](C)(C)C)cc1C(=O)NNC(=O)C[N+](C)(C)C
inactive: OVCAR-5 > 100 µM | HCT-116 > 100 µM | KM12 > 100 µM | SK-MEL-28 > 100 µM | SF-268 > 100 µM | SK-MEL-2 > 100 µM | SNB-19 > 100 µM | UACC-257 > 100 µM | NCI-H226 > 100 µM | HT-29 > 100 µM | UACC-62 > 100 µM | HL-60 62.1 µM | SF-295 > 100 µM | IGROV-1 > 100 µM | NCI-H23 > 100 µM | OVCAR-8 > 100 µM | HOP-92 > 100 µM | SK-MEL-5 > 100 µM
